Legend:
human matriptase = target: T1, human matriptase (Homo sapiens, UniProt Q9Y5Y6); assay: Assay for inhibition of matriptase (fluorogenic AMC substrate); type: biochemical; conditions: for Velocity (FU/min): residual matriptase velocity with test compound, substrate Boc-Gln-Ala-Arg-AMC, method gives 10 μM for initial screening, lower = more inhibition; for Ki: calculated from velocity by nonlinear regression, competitive inhibition model (GraphPad Prism 5)
T1 sequence (Q9Y5Y6 1-855): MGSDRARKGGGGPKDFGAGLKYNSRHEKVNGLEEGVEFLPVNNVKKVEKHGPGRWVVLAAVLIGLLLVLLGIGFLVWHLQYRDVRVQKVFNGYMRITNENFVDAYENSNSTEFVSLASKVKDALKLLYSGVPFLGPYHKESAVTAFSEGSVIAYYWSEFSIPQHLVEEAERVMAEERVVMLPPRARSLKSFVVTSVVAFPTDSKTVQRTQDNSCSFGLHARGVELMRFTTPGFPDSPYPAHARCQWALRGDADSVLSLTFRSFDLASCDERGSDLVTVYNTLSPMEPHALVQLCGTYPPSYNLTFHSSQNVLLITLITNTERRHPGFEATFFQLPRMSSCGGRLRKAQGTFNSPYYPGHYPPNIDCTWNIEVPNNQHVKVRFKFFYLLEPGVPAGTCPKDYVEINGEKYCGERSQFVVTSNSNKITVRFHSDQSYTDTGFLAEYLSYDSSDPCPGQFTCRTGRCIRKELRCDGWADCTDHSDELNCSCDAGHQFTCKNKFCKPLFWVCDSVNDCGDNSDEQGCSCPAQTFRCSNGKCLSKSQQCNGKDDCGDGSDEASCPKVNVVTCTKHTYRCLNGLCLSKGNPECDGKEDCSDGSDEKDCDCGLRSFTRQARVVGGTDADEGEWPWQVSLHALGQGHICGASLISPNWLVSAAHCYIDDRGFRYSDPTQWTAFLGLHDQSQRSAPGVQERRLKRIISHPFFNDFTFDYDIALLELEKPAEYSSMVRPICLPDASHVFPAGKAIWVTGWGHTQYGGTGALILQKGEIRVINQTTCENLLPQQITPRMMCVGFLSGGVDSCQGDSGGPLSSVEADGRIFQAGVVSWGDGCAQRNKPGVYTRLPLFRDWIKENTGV
Source text: The following describes an assay for matriptase as a representative serine protease and is based upon reported methods. (Désilets, A.; Longpré, J.-M.; Beaulieu, M.-E.; Leduc, R. FEBS Lett. 2006, 580, 2227-2232.) Similar assays are applicable and available for other serine proteases.
Enzyme activities were monitored by measuring the release of fluorescence from AMC-coupled peptides (excitation, 360 nm; emission, 441 nm) in a FLX-800 TBE microplate reader (Bio-Tek Instruments, Winooski, Vt., USA). The purified human matriptase was active site titrated with the burst titrant 4-methylumbelliferyl-p-guanidino benzoate (MUGB). Enzymatic assays with matriptase were performed in Tris HCl 100 mM containing 500 µg/mL BSA at pH 9. Human soluble furin was expressed, purified, titrated and assayed as described in the literature (Denault, J. B.; Lazure, C.; Day, R; Leduc, R. Protein Expr. Purif. 2000, 19, 113-124.) The purified HAT protein was active-site titrated with MUGB. Assays with HAT were performed in 50 mM Tris-HCl at pH 8.6.
Enzymes were diluted to concentrations ranging from 4 to 12.5 nM for furin, from 2 to 7 nM for matriptase and 20 pM for HAT and incubated with either 10 μM (for initial screening) […] or appropriate dilutions (for kinetic analysis), for example 0, 500, 1000, 2000 nM or 0, 250, 500, 1000, 2500, 5000 nM, of the test compound for 15 min at RT. Residual enzyme activity was measured by following the hydrolysis of a fluorogenic substrate (4 μM Boc-Arg-Val-Arg-Arg-AMC for furin, Boc-Gln-Ala-Arg-AMC for matriptase and 4 μM Boc-Val-Pro-Arg-AMC for HAT) (Bachem Bioscience, King of Prussia, Pa., USA). Saturation curves were performed in the presence of increasing concentrations of test compounds. Data from three independent experiments or more were typically averaged and residual velocities were plotted as a function of test compound concentration. Data were fitted by non-linear regression analysis to Equation (1) (Bieth, J. G. Methods Enzymol. 1995, 248, 59-84.) using the Enzfitter software (Biosoft, Ferguson, Mo., USA).
vi/v0=1−{([E]0+[I]0+Ki(app))−(([E]0+[I]0+Ki(app))^2−4[E]0[I]0)^1/2}/2[E]0 Equation (1): […]
where v0 and vi are the steady-state rates of substrate hydrolysis in the absence and presence of inhibitor, respectively, [E]0, the initial concentration of enzyme, [I]0, the initial concentration of inhibitor and Ki(app) the substrate-dependent equilibrium dissociation constant. The substrate-independent constant Ki was calculated using Equation (2) (Bieth, J. G. Methods Enzymol. 1995, 248, 59-84.),
Kt=Ki(app)(1+[S]0/Km) Equation (2): […]
The table presents results for matriptase inhibition for representative compounds of the invention.
Ki's can be calculated from the velocity using nonlinear regression analysis. The model used is a competitive enzyme inhibition equation where KmObs=Km*(1+[I]/Ki) and Y=Vmax*X/(KmObs+X). X is the substrate concentration. Y the velocity.

tumor metastasis = conditions: cited from earlier work

**Q.** With `C[C@@H]1C(=O)N[C@H](Cc2ccc(C(=N)N)cc2)C(=O)NCCCC2CCCCC2OCCN[C@@H](C2CC2)C(=O)N1C` (stereo partly drawn) [Compound 480] as the molecule, how does the “Velocity (FU/min)” value (human matriptase) read?
**A.** 1875 FU/min

**Q.** Which “Velocity (FU/min)” value (human matriptase) does the source give for `C[C@@H]1C(=O)N[C@H](CCC(N)=O)C(=O)NCCCc2ccc(F)cc2OCCN[C@@H](C2CC2)C(=O)N1C` [Compound 490] here?
**A.** 2440 FU/min

**Q.** With `C[C@@H]1CN[C@@H](C2CC2)C(=O)N(C)[C@H](C)C(=O)N[C@H](Cc2ccc(C(=N)N)cc2)C(=O)NCCCc2ccccc2O1` [Compound 459] as the molecule, how does the Ki (human matriptase) read?
**A.** 245 nM

**Q.** And the “Velocity (FU/min)” value (human matriptase)?
**A.** 140 FU/min

**Q.** What does the source list for `C[C@@H]1C(=O)N[C@H](Cc2ccc(C(=N)N)cc2)C(=O)NCCCc2ccc(F)cc2OCCN[C@@H](C2CC2)C(=O)N1C` [Compound 451]?
**A.** Ki (human matriptase): 1460 nM; Velocity (FU/min) (human matriptase): 1590 FU/min

**Q.** For `C[C@@H]1C(=O)N[C@H](Cc2ccc(C(=N)N)cc2)C(=O)NCCCc2ccc(F)cc2OCCN[C@H](C2CC2)C(=O)N1C` [Compound 456], which “Velocity (FU/min)” value (human matriptase) is on record?
**A.** 2250 FU/min

**Q.** For `C[C@@H]1C(=O)N[C@H](CCCNC(N)=O)C(=O)NCCCc2ccc(F)cc2OCCN[C@@H](C2CC2)C(=O)N1C` [Compound 491], which “Velocity (FU/min)” value (human matriptase) is on record?
**A.** 2440 FU/min

**Q.** With `C[C@H]1C(=O)N[C@H](Cc2ccc(C(=N)N)cc2)C(=O)NCCCc2ccc(F)cc2OCCN[C@@H](C2CC2)C(=O)N1C` [Compound 455] as the molecule, how does the “Velocity (FU/min)” value (human matriptase) read?
**A.** 2440 FU/min

**Q.** With `C[C@@H]1C(=O)N[C@H](Cc2ccc(C(=N)N)cc2)C(=O)NC/C=C/c2cccc(c2)OCCN[C@@H](C2CC2)C(=O)N1C` [Compound 482] as the molecule, how does the “Velocity (FU/min)” value (human matriptase) read?
**A.** 2500 FU/min

**Q.** With `C[C@@H]1CN[C@@H](C2CC2)C(=O)N(C)[C@H](C)C(=O)N[C@H](Cc2ccc(C(N)=O)cc2)C(=O)NCCCc2ccccc2O1` [Compound 498] as the molecule, how does the “Velocity (FU/min)” value (human matriptase) read?
**A.** 580 FU/min

**Q.** For `C[C@@H]1C(=O)N[C@H](Cc2ccc(C(=N)N)cc2)C(=O)NC/C=C/c2ccccc2OCCN[C@@H](C2CC2)C(=O)N1C` [Compound 465], which “Velocity (FU/min)” value (human matriptase) is on record?
**A.** 1125 FU/min

**Q.** Which “Velocity (FU/min)” value (human matriptase) does the source give for `C[C@@H]1C(=O)N[C@H](Cc2c[nH]cn2)C(=O)NCCCc2ccc(F)cc2OCCN[C@@H](C2CC2)C(=O)N1C` [Compound 493] here?
**A.** 2700 FU/min

**Q.** For `C[C@@H]1C(=O)N[C@H](Cc2ccc(C(=N)N)cc2)C(=O)NCCCc2ccc(C(=N)N)cc2OCCN[C@@H](C2CC2)C(=O)N1C` [Compound 461], which “Velocity (FU/min)” value (human matriptase) is on record?
**A.** 812 FU/min

**Q.** With `C[C@@H]1CCc2ccc(F)cc2OCCN[C@@H](C2CC2)C(=O)N(C)[C@H](C)C(=O)N[C@H](Cc2ccc(C(=N)N)cc2)C(=O)N1` [Compound 457] as the molecule, how does the “Velocity (FU/min)” value (human matriptase) read?
**A.** 1750 FU/min

**Q.** For `COC(=O)NC(CCC(=O)O)(Cc1cccc(C(=N)N)c1)C(=O)NCC(=O)N[C@H](C=O)CCCNC(=N)N` (stereo partly drawn) [CVS-3983], which “activity in an in vivo model of tumor metastasis” value (tumor metastasis) is on record?
**A.** has shown activity

**Q.** For `C[C@@H]1C(=O)N[C@H](Cc2ccc(C(=N)N)cc2)C(=O)NCCOc2cccc(c2)OCCN[C@@H](C2CC2)C(=O)N1C` [Compound 479], which “Velocity (FU/min)” value (human matriptase) is on record?
**A.** 2190 FU/min

**Q.** For `C[C@@H]1C(=O)N[C@H](Cc2ccc(C(=N)N)cc2)C(=O)NCCc2ccccc2CCCCN[C@@H](C2CC2)C(=O)N1C` [Compound 478], which “Velocity (FU/min)” value (human matriptase) is on record?
**A.** 2440 FU/min

**Q.** Which “Velocity (FU/min)” value (human matriptase) does the source give for `C[C@@H]1C(=O)N[C@H](CCCNC(=N)N)C(=O)NCCCc2ccc(F)cc2OCCN[C@@H](C2CC2)C(=O)N1C` [Compound 488] here?
**A.** 2250 FU/min

**Q.** For `C[C@@H]1C(=O)N[C@H](CCCCN)C(=O)NCCCc2ccc(F)cc2OCCN[C@@H](C2CC2)C(=O)N1C` [Compound 485], which “Velocity (FU/min)” value (human matriptase) is on record?
**A.** 2625 FU/min

**Q.** For `C[C@@H]1C(=O)N[C@H](Cc2ccc(C(=N)N)cc2)C(=O)NCc2ccccc2Sc2ccccc2CN[C@@H](C2CC2)C(=O)N1C` [Compound 475], which “Velocity (FU/min)” value (human matriptase) is on record?
**A.** 2125 FU/min

**Q.** For `C[C@@H]1CN[C@@H](C2CC2)C(=O)N(C)[C@H](C)C(=O)N[C@H](Cc2ccc(C(=N)N)cc2)C(=O)NCCCc2ccc(F)cc2O1` [Compound 458], which “Velocity (FU/min)” value (human matriptase) is on record?
**A.** 812 FU/min

**Q.** Which “Velocity (FU/min)” value (human matriptase) does the source give for `C[C@@H]1C(=O)N[C@H](CCCCNC(N)=O)C(=O)NCCCc2ccc(F)cc2OCCN[C@@H](C2CC2)C(=O)N1C` [Compound 492] here?
**A.** 2440 FU/min

**Q.** Which “Velocity (FU/min)” value (human matriptase) does the source give for `C[C@@H]1C(=O)N[C@H](CCCN)C(=O)NCCCc2ccc(F)cc2OCCN[C@@H](C2CC2)C(=O)N1C` [Compound 487] here?
**A.** 2500 FU/min

**Q.** Which “Velocity (FU/min)” value (human matriptase) does the source give for `C[C@@H]1C(=O)N[C@H](Cc2ccc(C(=N)N)cc2)C(=O)NCCc2cccc(c2)CN[C@@H](C2CC2)C(=O)N1C` [Compound 473] here?
**A.** 2375 FU/min

**Q.** For `C[C@@H]1C(=O)N[C@H](Cc2ccc(C(=N)N)cc2)C(=O)NCCc2ccccc2OCCN[C@@H](C2CC2)C(=O)N1C` [Compound 481], which “Velocity (FU/min)” value (human matriptase) is on record?
**A.** 1875 FU/min

**Q.** With `C[C@@H]1C(=O)N[C@H](Cc2ccc(C(N)=O)cc2)C(=O)NCCCc2ccc(C(=N)N)cc2OCCN[C@@H](C2CC2)C(=O)N1C` [Compound 499] as the molecule, how does the “Velocity (FU/min)” value (human matriptase) read?
**A.** 937 FU/min

**Q.** For `C[C@@H]1C(=O)N[C@H](Cc2cscn2)C(=O)NCCCc2ccc(F)cc2OCCN[C@@H](C2CC2)C(=O)N1C` [Compound 496], which “Velocity (FU/min)” value (human matriptase) is on record?
**A.** 2700 FU/min

**Q.** For `C[C@@H]1C(=O)N[C@H](Cc2ccc(C(=N)N)cc2)C(=O)NCCCc2ccccc2OCCN[C@@H](C2CC2)C(=O)N1C` [Compound 464], which “Velocity (FU/min)” value (human matriptase) is on record?
**A.** 1875 FU/min

**Q.** Which “Velocity (FU/min)” value (human matriptase) does the source give for `C[C@@H]1C(=O)N[C@@H](Cc2ccc(C(=N)N)cc2)C(=O)NCCCc2ccc(F)cc2OCCN[C@@H](C2CC2)C(=O)N1C` [Compound 454] here?
**A.** 2190 FU/min

**Q.** For `C[C@@H]1C(=O)N[C@H](Cc2ccncc2)C(=O)NCCCc2ccc(F)cc2OCCN[C@@H](C2CC2)C(=O)N1C` [Compound 495], which “Velocity (FU/min)” value (human matriptase) is on record?
**A.** 2700 FU/min

**Q.** With `C[C@@H]1NCCOc2cc(F)ccc2CCCNC(=O)[C@@H](Cc2ccc(C(=N)N)cc2)NC(=O)[C@@H](C)N(C)C1=O` [Compound 467] as the molecule, how does the “Velocity (FU/min)” value (human matriptase) read?
**A.** 2300 FU/min

**Q.** With `C[C@@H]1C(=O)N[C@H](Cc2cccnc2)C(=O)NCCCc2ccc(F)cc2OCCN[C@@H](C2CC2)C(=O)N1C` [Compound 494] as the molecule, how does the “Velocity (FU/min)” value (human matriptase) read?
**A.** 2125 FU/min

Reference: patent US20120270769A1, “METHODS OF USING MACROCYCLIC INHIBITORS OF SERINE PROTEASE ENZYMES” (priority 2009, published 2012)
